Reference: patent US9120835B2, “Phosphoric acid ester derivatives” (Daiichi Sankyo Company Limited, priority 2011, dated 2015)

How the values were obtained:
[1] = tested on: lymphocytes in the peripheral blood; experiment: Variation in number of lymphocytes in peripheral blood in rat; assay type: in vivo; conditions: male LEW/Crj rats, single oral gavage, suspension in 0.5% MC solution
Method: (§1) Male LEW/Crj rats at 3 or 6 weeks old were purchased from Charles River Laboratory Japan Inc. The rats were acclimatized for a week before the start of experiments. The rats were used for the experiments at 3 or 5 rats per one group. A necessary amount of a compound was weighed and suspended in a 0.5% MC solution by using a mortar and a muddler, or a homogenizer. A liquid for administration was prepared so as to be 5 mL per 1 kg body weight. The prepared solution was administered once by oral gavage. […] The blood was immediately put into a vacuum-sealed blood collection tube coated with an anticoagulant (EDTA-2K) (Nipro Corporation) and mixed. The sample was handled under room temperature condition until measurement. The number of the lymphocytes was measured by using an automatic hemacytometer (ADVIA120, Siemens Healthcare Diagnostics K. K.). At the time of blood collection, the thymus gland was also excised.

S1P lyase = target: T1, S1P lyase (Rattus norvegicus, UniProt Q8CHN6); experiment: S1P lyase inhibitory ability in rat (thymus gland extract after oral administration); assay type: in vivo; conditions: thymus gland extract of orally dosed rats, [3H]dhS1P substrate, 37° C. for 1 hour
T1 construct: The excised thymus gland was crushed; from tissue; host or cells: thymus gland of male LEW/Crj rats (extract supernatant)
T1 sequence (Q8CHN6 1-568): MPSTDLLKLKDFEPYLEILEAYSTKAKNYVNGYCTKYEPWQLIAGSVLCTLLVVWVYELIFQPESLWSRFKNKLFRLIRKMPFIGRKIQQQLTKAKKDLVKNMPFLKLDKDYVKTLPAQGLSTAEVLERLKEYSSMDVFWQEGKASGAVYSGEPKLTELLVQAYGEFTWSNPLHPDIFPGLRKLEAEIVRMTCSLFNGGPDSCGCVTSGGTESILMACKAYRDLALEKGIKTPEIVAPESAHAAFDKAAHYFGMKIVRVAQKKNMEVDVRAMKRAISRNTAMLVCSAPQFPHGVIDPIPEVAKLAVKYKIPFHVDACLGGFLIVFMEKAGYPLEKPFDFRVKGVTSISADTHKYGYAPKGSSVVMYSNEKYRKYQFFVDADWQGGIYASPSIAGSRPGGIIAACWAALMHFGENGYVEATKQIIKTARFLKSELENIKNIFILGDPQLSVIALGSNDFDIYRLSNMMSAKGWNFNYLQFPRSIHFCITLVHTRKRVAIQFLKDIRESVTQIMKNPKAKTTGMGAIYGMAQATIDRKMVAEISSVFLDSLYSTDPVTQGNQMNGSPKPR
Method: as §1, with “At the time of blood collection, the thymus gland was also excised.” left out
The excised thymus gland was crushed by either a method including using zirconia beads in the presence of a homogenize buffer (50 mM HEPES-NaOH (pH=7.4), 0.15 M NaCl, 10% Glycerol, 1 mM EDTA, 1 mM DTT and complete protease inhibitor cocktail (Roche, #4693132)) or a method including chopping up the thymus gland and thereafter using a Potter-Elvehjem homogenizer. […] The protein amount in the supernatant was quantified by the Bradford method, and the supernatant was flash-freezed with liquid nitrogen and then stored at −80° C. […]

| SMILES | number of lymphocytes in the peripheral blood [1] | S1P lyase activity in the thymus gland (S1P lyase) |
| --- | --- | --- |
| CC(=O)c1nc(COP(=O)(O)O)c[nH]1 [Example 1, Phosphoric acid mono-(2-acetyl-1H-imidazol-4-ylmethyl) ester and phosphoric acid mono-(2-acetyl-3H-imidazol-4-ylmethyl) ester] | reduced the number of lymphocytes in the peripheral blood | decreased SIP lyase activity in the thymus gland |
| CC(=O)c1nc(COP(=O)(O)O)c(C)[nH]1 [Example 2, Phosphoric acid mono-(2-acetyl-5-methyl-1H-imidazol-4-ylmethyl) ester and phosphoric acid mono-(2-acetyl-5-methyl-3H-imidazol-4-ylmethyl) ester] | reduced the number of lymphocytes in the peripheral blood | decreased SIP lyase activity in the thymus gland |
| O=P(O)(O)OCc1c[nH]c(-c2ccon2)n1 [Example 4, Phosphoric acid mono-(2-isoxazol-3-yl-1H-imidazol-4-ylmethyl) ester and phosphoric acid mono-(2-isoxazol-3-yl-3H-imidazol-4-ylmethyl) ester] | reduced the number of lymphocytes in the peripheral blood | – |
